Results taken from patent US20120088667A1, “SAFENING AGENT” (priority 2009, published 2012).
Read-outs that look alike come from different tables or passages of the source.

Columns and labels:
Winter Barley cv Saffron = settings: for Phytotoxicity (0-9) (0 = Dead) + 14 Days / Phytotoxicity (0-9) (0 = Dead) + 28 Days: score 0-9, 0 = Dead; for Vigour (0-9) (9 = Most Vigour) + 14 days: score 0-9, 9 = Most Vigour; for Vigour (0-9) + 28 Days: score 0-9, +28 days
From the text: (§1) The safening system and the fungicide were applied to the crops either simultaneously or sequentially, either as foliar applications or as a seed treatment.
(§2) Winter Barley: cv Saffron, sown 27 May 2008, at four/five seeds per 9 cm pot, sown in standard multi-purpose compost of pH 6.5. Date of spraying: 23 July; Dates of measurement/scoring: 30 July, 14 August, 22 August. Sprayed: mid-tillering phase (GS23). Winter Wheat: cv Limerick, sown 4 Jun. 2008, at four/five seeds per 9 cm pot, sown in standard multi-purpose compost of pH 6.5. Date of spraying: 23 July; Dates of measurement/scoring: 30 July, 14 August, 23 August. Sprayed: mid-tillering phase (GS23). Maize: cv Sundance, sown 25 May 2008, at 10 seeds per 25 cm pot, in John Innes No 1 compost. Date of measurement/assessment: 15 June. Seed treatment trial. Randomised block, mean of five replicates.
(§3) SAF: at least one from class (f) each at <3 g/l, plus at least one from class (c).

Winter Wheat cv Limerick = system: Winter Wheat cv Limerick
From the text: as §1, §2, §3

Soybean = assay: Root nodulation and safening, soybean, compost of low pH (Example 7.1); settings: Soybean, compost of low pH (5.0-5.5); for Nodules Per Plant (V1): V1, +28 days after spraying, mean of 12 plants; for Nodulation Score (0-9) (V1) / Phyto-Toxicity Score (0-9) (V1) / Vigour Score (0-9) (V1): V1, score 0-9; for Nodules Per Plant (VC): +28 days after spraying
From the text: (§4) The safener/safening system and the fertiliser were applied to the crops either simultaneously or sequentially.
(§5) Co=100% Cobalt Sulphate (20 g per litre and per hectare). FF1=20 g per litre Cobalt Sulphate (as per Co above) plus “Miracle-Gro” at xl recommended rate (applied at 15 g per 2.5 sq metres). Miracle-Gro contains: 24% N, 4% P, 13% K, plus 0.02% B, 0.03% Cu, 0.19% Fe, 0.05% Mn, 0.001% Mo and 0.03% Zn. FF2=20 g per litre Cobalt Sulphate plus Miracle-Gro at ×2 recommended rate. SAF: at least one from class (f) each at <3 g/l, plus at least one from class (c).
Scored/Counted+28 Days After Spraying. Sown in Compost of low pH (5.0-5.5) on 1 May 2008. Spray Date (VC)=4 June, V1 Date=20 June. Scored/Measured on 17 July. […] Seed density approx 110 kg/ha. Soybean treated with standard inoculant at sowing.

NAVY BEAN cv Mogex = assay: Root nodulation and safening, navy bean, compost of normal pH (Example 7.4); settings: compost of normal pH (6.5); for Nodules Per Plant (V1): V1, +28 days after spraying, no inoculum; for Nodulation Score (0-9) (V1) / Phyto-Toxicity Score (0-9) (V1) / Vigour Score (0-9) (V1): V1, score 0-9
From the text: as §4, §5
NAVY BEAN cv Mogex. Scored/Counted+28 Days after Spraying. Dates as per Example 7.3 Above, but sown in compost of normal pH (6.5). Each treatment represents the mean value from 12 plants, within four replicates. No inoculum applied.

[1] = system: Maize cv Sundance (i.e. not Roundup Ready); settings: no glyphosate; for Vigour (0-9) + 14 Days / Vigour (0-9) + 28 Days / Vigour (0-9) + 41 Days: scale 0-9, 0=least vigour, 9=most vigour
[2] = Table 2.1, fungicide Prochloraz
[3] = Table 2.2, fungicide Flutriafol
[4] = Table 2.3, fungicides Fenpropidin and Flutriafol
[5] = Table 2.4, winter wheat, fungicide Prochloraz, score 0-9, 0 = Dead
[6] = Table 2.4, winter wheat, fungicide Prochloraz, score 0-9, 9 = Most Vigour
[7] = Table 2.5, winter wheat, fungicide Flutriafol, score 0-9, 0 = Dead
[8] = Table 2.5, winter wheat, fungicide Flutriafol, score 0-9, 9 = Most Vigour
[9] = score 0-9, 0 = dead, foliar, fungicides Fenpropidin and Flutriafol, Table 2.6
[10] = score 0-9, 9 = most vigour, foliar, fungicides Fenpropidin and Flutriafol, Table 2.6
[11] = scale 0-9, 0=dead, 9=least phytotoxicity

## Nc1ccccc1C(=O)O [AN, anthranilic acid]
Winter Barley cv Saffron; [2]
  Phytotoxicity (0-9) (0 = Dead) + 14 Days: 7.5
  Phytotoxicity (0-9) (0 = Dead) + 28 Days: 8.0
  Vigour (0-9) (9 = Most Vigour) + 14 days: 7.0
  Vigour (0-9) + 28 Days: 8.0
Winter Barley cv Saffron; [3]
  Phytotoxicity (0-9) (0 = Dead) + 14 Days: 7.5
  Phytotoxicity (0-9) (0 = Dead) + 28 Days: 8.0
  Vigour (0-9) (9 = Most Vigour) + 14 days: 7.0
  Vigour (0-9) + 28 Days: 8.0
Winter Barley cv Saffron; [4]
  Phytotoxicity (0-9) (0 = Dead) + 14 Days: 7.5
  Phytotoxicity (0-9) (0 = Dead) + 28 Days: 8.0
  Vigour (0-9) (9 = Most Vigour) + 14 days: 7.0
  Vigour (0-9) + 28 Days: 8.0
Winter Wheat cv Limerick; [5]
  Phytotoxicity (0-9) (0 = Dead) + 14 Days: 7.5
  Phytotoxicity (0-9) (0 = Dead) + 28 Days: 8.0
Winter Wheat cv Limerick; [6]
  Vigour (0-9) (9 = Most Vigour) + 14 days: 7.0
Winter Wheat cv Limerick; Table 2.4, winter wheat, fungicide Prochloraz, score 0-9
  Vigour (0-9) + 28 Days: 8.0
Winter Wheat cv Limerick; [7]
  Phytotoxicity (0-9) (0 = Dead) + 14 Days: 7.5
  Phytotoxicity (0-9) (0 = Dead) + 28 Days: 8.0
Winter Wheat cv Limerick; [8]
  Vigour (0-9) (9 = Most Vigour) + 14 days: 7.0
Winter Wheat cv Limerick; Table 2.5, winter wheat, fungicide Flutriafol, score 0-9
  Vigour (0-9) + 28 Days: 8.0
Winter Wheat cv Limerick; [9]
  Phytotoxicity (0-9) (0 = Dead) + 14 Days: 7.5
  Phytotoxicity (0-9) (0 = Dead) + 28 Days: 8.0
Winter Wheat cv Limerick; [10]
  Vigour (0-9) (9 = Most Vigour) + 14 days: 7.0
  Vigour (0-9) + 28 Days: 8.0
Soybean
  Nodules Per Plant (V1): 28.2
  Nodulation Score (0-9) (V1): 5.3
  Phyto-Toxicity Score (0-9) (V1): 8.0
  Vigour Score (0-9) (V1): 6.2
  Nodules Per Plant (VC): 33.2
  Nod Score (0-9) (VC): 5.8
NAVY BEAN cv Mogex
  Nodules Per Plant (V1): 32.2
  Nodulation Score (0-9) (V1): 5.0
  Phyto-Toxicity Score (0-9) (V1): 7.0
  Vigour Score (0-9) (V1): 7.2
  Nodules Per Plant (VC): 33.2
  Nod Score (0-9) (VC): 5.1
[1]; scale 0-9, 0=dead, 9=least phytotoxicity, 14 days after spraying
  Phytotoxicity (0-9) (0 = Dead) + 14 Days: 8.0
[1]; scale 0-9, 0=dead, 9=least phytotoxicity, 28 days
  Phytotoxicity (0-9) (0 = Dead) + 28 Days: 8.0
[1]; [11]
  Phytotoxicity (0-9) (0 = Dead) + 41 days: 8.0
[1]
  Vigour (0-9) + 14 Days: 8.0
  Vigour (0-9) + 41 Days: 8.0
[1]; 28 days
  Vigour (0-9) + 28 Days: 8.0

## CC(=O)Nc1ccc(O)cc1 [AC, N-(4-hydroxypheyl)acetamide, reference compound]
Winter Barley cv Saffron; [2]
  Vigour (0-9) (9 = Most Vigour) + 14 days: 7.0
  Vigour (0-9) + 28 Days: 8.0
Winter Barley cv Saffron; [3]
  Vigour (0-9) (9 = Most Vigour) + 14 days: 7.0
  Vigour (0-9) + 28 Days: 8.0
Winter Barley cv Saffron; [4]
  Vigour (0-9) (9 = Most Vigour) + 14 days: 7.0
  Vigour (0-9) + 28 Days: 8.0
Winter Wheat cv Limerick; [6]
  Vigour (0-9) (9 = Most Vigour) + 14 days: 7.0
Winter Wheat cv Limerick; [8]
  Vigour (0-9) (9 = Most Vigour) + 14 days: 7.0
Winter Wheat cv Limerick; [10]
  Vigour (0-9) (9 = Most Vigour) + 14 days: 7.0
Soybean
  Nodules Per Plant (V1): 26.1
  Nodulation Score (0-9) (V1): 5.0
  Phyto-Toxicity Score (0-9) (V1): 8.0
  Vigour Score (0-9) (V1): 6.0
  Nodules Per Plant (VC): 28.1
  Nod Score (0-9) (VC): 5.3
NAVY BEAN cv Mogex
  Nodules Per Plant (V1): 29.5
  Nodulation Score (0-9) (V1): 4.8
  Phyto-Toxicity Score (0-9) (V1): 7.0
  Vigour Score (0-9) (V1): 7.0
  Nodules Per Plant (VC): 32.1
  Nod Score (0-9) (VC): 5.0
[1]; [11]
  Phytotoxicity (0-9) (0 = Dead) + 41 days: 8.0
[1]
  Vigour (0-9) + 14 Days: 8.0
  Vigour (0-9) + 41 Days: 8.0
[1]; 28 days
  Vigour (0-9) + 28 Days: 8.0
